Results: ChEMBL document CHEMBL1201862, “PubChem BioAssay data set” (2004)
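Five compound concentrations were applied to cells in 96-well plates for 48 hours; endpoints were derived by simple linear interpolation of the resulting dose-response curve. GI50 = concentration required for 50% inhibition of growth.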 The source made the active and inactive calls. Cut-off read from the data, not from the text of the source: active = GI50 up to about 1.1 µM and inactive = higher.

Legend:
Assay in all cases: NCI tumour cell line growth inhibition, 48 h
[1] = test system: OVCAR-8
[2] = test system: SF-295
[3] = test system: M19-MEL
[4] = test system: SF-539
[5] = test system: HCT-116
[6] = test system: CAKI-1
[7] = test system: TK-10
[8] = test system: COLO 205
[9] = test system: RXF 393
[10] = test system: NCI-H522
[11] = test system: IGROV-1
[12] = test system: HT-29
[13] = test system: DMS-273
[14] = test system: SK-MEL-5
[15] = test system: K562
[16] = test system: UO-31
[17] = test system: OVCAR-4
[18] = test system: NCI-H460
[19] = test system: EKVX
[20] = test system: SN12C
[21] = test system: U-251
[22] = test system: HOP-62
[23] = test system: UACC-257
[24] = test system: 786-0
[25] = test system: SNB-75
[26] = test system: HCC 2998
[27] = test system: SK-MEL-2
[28] = test system: ACHN
[29] = test system: UACC-62
[30] = test system: HL-60
[31] = test system: MOLT-4
[32] = test system: DMS-114
[33] = test system: CCRF-CEM
[34] = test system: SR
[35] = test system: HOP-92
[36] = test system: A549
[37] = test system: LXFL 529
[38] = test system: SNB-19
[39] = test system: LOX IMVI
[40] = test system: M14
[41] = test system: SK-MEL-28
[42] = test system: RPMI-8226
[43] = test system: A498
[44] = test system: SW-620
[45] = test system: SF-268
[46] = test system: Malme-3M
[47] = test system: HCT-15
[48] = test system: KM12
[49] = test system: OVCAR-3
[50] = test system: SK-OV-3
[51] = test system: SNB-78
[52] = test system: NCI-H23
[53] = test system: DLD-1
[54] = test system: OVCAR-5
[55] = test system: NCI-H226

**Q.** What does the source list for `Cc1c(N2CCOCC2)nc2ccc(Cl)cc2c1-c1ccccc1`?
**A.** GI50 [1]: > 100 µM (inactive); GI50 [2]: > 100 µM (inactive); GI50 [3]: 85.7 µM (inactive); GI50 [4]: 61.9 µM (inactive); GI50 [5]: 56.9 µM (inactive); GI50 [6]: 76.4 µM (inactive); GI50 [7]: > 100 µM (inactive); GI50 [8]: > 100 µM (inactive); GI50 [9]: 62.2 µM (inactive); GI50 [10]: 30.8 µM (inactive); GI50 [11]: > 100 µM (inactive); GI50 [12]: 57.1 µM (inactive); GI50 [13]: 59.8 µM (inactive); GI50 [14]: 21 µM (inactive); GI50 [15]: 31.6 µM (inactive); GI50 [16]: > 100 µM (inactive); GI50 [17]: 50.7 µM (inactive); GI50 [18]: 58.3 µM (inactive); GI50 [19]: 91.8 µM (inactive); GI50 [20]: 47.8 µM (inactive); GI50 [21]: 89.9 µM (inactive); GI50 [22]: > 100 µM (inactive); GI50 [23]: > 100 µM (inactive); GI50 [24]: 95.9 µM (inactive); GI50 [25]: 31.4 µM (inactive); GI50 [26]: 40.9 µM (inactive); GI50 [27]: > 100 µM (inactive); GI50 [28]: 69 µM (inactive); GI50 [29]: > 100 µM (inactive); GI50 [30]: 34 µM (inactive); GI50 [31]: 21.8 µM (inactive); GI50 [32]: 70.1 µM (inactive); GI50 [33]: 26.7 µM (inactive); GI50 [34]: 34.4 µM (inactive); GI50 [35]: 42.7 µM (inactive); GI50 [36]: 43.8 µM (inactive); GI50 [37]: 61.2 µM (inactive); GI50 [38]: > 100 µM (inactive); GI50 [39]: 49.4 µM (inactive); GI50 [40]: > 100 µM (inactive); GI50 [41]: > 100 µM (inactive); GI50 [42]: 46.9 µM (inactive); GI50 [43]: > 100 µM (inactive); GI50 [44]: 66.2 µM (inactive); GI50 [45]: 80.2 µM (inactive); GI50 [46]: 60.5 µM (inactive); GI50 [47]: 42.6 µM; GI50 [48]: 87.9 µM (inactive); GI50 [49]: 64.7 µM (inactive); GI50 [50]: > 100 µM (inactive); GI50 [51]: > 100 µM (inactive); GI50 [52]: 69.7 µM (inactive)

**Q.** With `COc1ccc(CNc2cnc3cc(N)ccc3n2)cc1OC` as the compound, how does the GI50 [1] read?
**A.** > 100 µM (inactive)

**Q.** What about the GI50 [2] of the same compound?
**A.** > 100 µM (inactive)

**Q.** What about the GI50 [3] of the same compound?
**A.** > 100 µM (inactive)

**Q.** What about the GI50 [53] of the same compound?
**A.** > 100 µM (inactive)

**Q.** And the GI50 [4]?
**A.** > 100 µM (inactive)

**Q.** And the GI50 [5]?
**A.** > 100 µM (inactive)

**Q.** What about the GI50 [6] of the same compound?
**A.** > 100 µM (inactive)

**Q.** What about the GI50 [7] of the same compound?
**A.** > 100 µM (inactive)

**Q.** And the GI50 [8]?
**A.** > 100 µM (inactive)

**Q.** What about the GI50 [10] of the same compound?
**A.** > 100 µM (inactive)

**Q.** And the GI50 [12]?
**A.** > 100 µM (inactive)

**Q.** And the GI50 [13]?
**A.** > 100 µM (inactive)

**Q.** What about the GI50 [54] of the same compound?
**A.** > 10 µM (inactive)

**Q.** What about the GI50 [14] of the same compound?
**A.** > 100 µM (inactive)

**Q.** What about the GI50 [15] of the same compound?
**A.** > 100 µM (inactive)

**Q.** What about the GI50 [16] of the same compound?
**A.** > 100 µM (inactive)

**Q.** What about the GI50 [17] of the same compound?
**A.** > 100 µM (inactive)

**Q.** And the GI50 [18]?
**A.** > 100 µM (inactive)

**Q.** What about the GI50 [19] of the same compound?
**A.** > 100 µM (inactive)

**Q.** What about the GI50 [20] of the same compound?
**A.** > 100 µM (inactive)

**Q.** And the GI50 [22]?
**A.** > 100 µM (inactive)

**Q.** And the GI50 [23]?
**A.** > 100 µM (inactive)

**Q.** And the GI50 [24]?
**A.** > 100 µM (inactive)

**Q.** And the GI50 [25]?
**A.** > 100 µM (inactive)

**Q.** What about the GI50 [26] of the same compound?
**A.** > 100 µM (inactive)

**Q.** And the GI50 [27]?
**A.** > 100 µM (inactive)

**Q.** What about the GI50 [28] of the same compound?
**A.** > 100 µM (inactive)

**Q.** And the GI50 [30]?
**A.** > 100 µM (inactive)

**Q.** And the GI50 [31]?
**A.** > 100 µM (inactive)

**Q.** And the GI50 [32]?
**A.** > 100 µM (inactive)

**Q.** And the GI50 [33]?
**A.** > 100 µM (inactive)

**Q.** And the GI50 [34]?
**A.** > 100 µM (inactive)

**Q.** And the GI50 [36]?
**A.** > 100 µM (inactive)

**Q.** And the GI50 [55]?
**A.** > 100 µM (inactive)

**Q.** And the GI50 [38]?
**A.** > 100 µM (inactive)

**Q.** What about the GI50 [39] of the same compound?
**A.** > 100 µM (inactive)

**Q.** What about the GI50 [40] of the same compound?
**A.** > 100 µM (inactive)

**Q.** And the GI50 [41]?
**A.** > 100 µM (inactive)

**Q.** And the GI50 [42]?
**A.** > 100 µM (inactive)

**Q.** What about the GI50 [44] of the same compound?
**A.** > 100 µM (inactive)

**Q.** What about the GI50 [45] of the same compound?
**A.** > 100 µM (inactive)

**Q.** And the GI50 [46]?
**A.** > 100 µM (inactive)

**Q.** And the GI50 [47]?
**A.** > 100 µM

**Q.** And the GI50 [48]?
**A.** > 100 µM (inactive)

**Q.** And the GI50 [49]?
**A.** > 100 µM (inactive)
